According to US8461362B2, “Protein phosphatase 2A-activating agents” (The Ohio State University Research Foundation, priority 2009, dated 2013):
Residues, ends and D or L forms follow the SMILES beside them. *: point of attachment. Cbz = O=C(OCc1ccccc1)*

Tests used:
[1] = tested on: AR and its target gene product PSA in LNCaP cells; experiment: Western blot of AR and PSA expression in LNCaP cells; type: cell-based; conditions: PP2A inhibitor co-treatment with VES or TS-1
Procedure: (§1) Cells cultured in T25 flasks were collected by scraping, and cell pellets were washed once with PBS. Cells were lysed in a lysis buffer consisting of 1% SDS, 10 mM EDTA and 50 mM Tris-HCl, pH 8.1, in the presence of a commercial protease inhibitor cocktail from Aldrich-Sigma (2 mM AEBSF, 1 mM EDTA, 130 μM bestatin, 14 μM E-64, 1 μM leupeptin, and 0.3 μM aprotinin). Following a 10-sec sonication using 20% output in a Virsonic 300 sonicator (Virtis, Gardiner N.Y.) to disrupt cellular organelles and genomic DNA, cell lysates were centrifuged at 15,200×g for 15 minutes. One μL of the suspension was used for protein determination using a colorimetric BCA assay (Pierce, Rockford, Ill.), and to the remaining solution was added an equivalent volume of 2×SDS-polyacrylamide gel electrophoresis sample loading buffer (62.5 mM Tris-HCl, pH 6.8, 4% SDS, 5% β-mercaptoethanol, 20% glycerol, and 0.1% bromophenol blue), and boiled for 5 min. Equal amounts of proteins were resolved in 8% SDS-polyacrylamide gels, and transferred to nitrocellulose membranes using a semidry transfer cell. The transblotted membrane was washed twice with Tris-buffered saline containing 0.1% Tween 20 (TBST). After blocking with TBST containing 5% nonfat milk for 40 min, the membrane was incubated with the appropriate primary antibody in TBST-1% nonfat milk at 4° C. overnight. All primary antibodies were diluted 1:1000 in 1% nonfat milk-containing TBST. After treatment with the primary antibody, the membrane was washed three times with TBST for a total of 15 min, followed by incubation with goat anti-rabbit or anti-mouse Immunoglobulin G (IgG)-horseradish peroxidase conjugates (diluted 1:2000) for 1 h at room temperature and four washes with TBST for a total of 1 h. The immunoblots were visualized by enhanced chemiluminescence.

Sp1 = Sp1 protein expression, stability and ubiquitination in LNCaP cells; type: cell-based; conditions: proteasome inhibition, LNCaP cells treated with TS-1
Procedure: as §1
LNCaP cells were co-transfected with 5 μg each of Flag-Sp1 and HA-ubiquitin plasmids in an Amaxa Nucleofector using a LNCaP-specific nucleofector kit. These transiently transfected cells were seeded in 6-well plates at 2×10^5 per well. After 48-h incubation, cells were exposed to VES or TS-1 at the indicated concentration for 48 h, and lysed by a radioimmunoprecipitation assay lysis buffer (Santa Cruz Biotechnology) in the presence of a freshly prepared cocktail of phosphatase and protease inhibitors (2 mmol/L AEBSF, 1 mM EDTA, 130 μM bestatin, 14 μM E-64, 1 μM leupeptin, and 0.3 μM aprotinin, 2 mM imidazole, 1 mM sodium fluoride, 1.15 mM sodium molybdate, 1 mM sodium orthovanadate, and 4 mmol/L sodium tartrate dihydrate). After centrifugation at 13,000×g for 15 min, the supernatants were collected, preincubated with protein A/G agarose (Santa Cruz Biotechnology) for 15 min, and centrifuged at 1,000×g for 5 min. Supernatant (20 μL) were stored at 4° C. to be used as input, whereas the remaining supernatant was exposed to 4 μg of anti-Sp1 antibodies at 4° C. for 12 h, followed by protein A/G agarose beads at 4° C. for another 2 h. After brief centrifugation, immunoprecipitates were collected, washed with the aforementioned lysis buffer four times, suspended in 2×SDS sample buffer, and subjected to Western blot analysis with antibodies against HA and Flag.

[2] = tested on: androgen-independent prostate cancer; conditions: minimally pretreated patients with androgen-independent prostate cancer; cited from earlier work

Compound	protection of Sp1 from TS-1-facilitated ablation (Sp1)	also measured
C=C1[C@@H](O)[C@@H]2O[C@]3(CC[C@H](/C=C/[C@@H](C)[C@@H]4CC(C)=C[C@@]5(O[C@H](C[C@@](C)(O)C(=O)O)CC[C@H]5O)O4)O3)CC[C@H]2O[C@@H]1[C@@H](O)C[C@H](C)[C@H]1O[C@@]2(CCCCO2)CC[C@H]1C [okadaic acid]	–	protection from VES/TS-1 suppression of phosphorylation or expression of JNK, Sp1 and AR [1]: could protect cells from the suppressive effect
CC[C@H](C)[C@H](NC(=O)[C@H]([C@@H](C)CC)N(C)C(C)=O)C(=O)N[C@H](C(=O)N[C@@H](CC(C)C)C(=O)[C@@]1(C)CO1)[C@@H](C)O [epoxomicin]	protected Sp1 from TS-1-facilitated ablation	–
CC(C)C[C@@H](C=O)NC(=O)[C@H](CC(C)C)NC(=O)[C@H](CC(C)C)NC(=O)OCc1ccccc1 [MG-132] (Cbz-Leu-Leu-Leu-aldehyde)	protected Sp1 from TS-1-facilitated ablation	–
Cn1cncc1[C@@](N)(c1ccc(Cl)cc1)c1ccc2c(c1)c(-c1cccc(Cl)c1)cc(=O)n2C [R115777]	–	anti-tumor activity in patients [2]: little anti-tumor activity
